{
  "source": "patent US9181290B2",
  "about": "“Inhibition of biofilm formation by 1,2,3,4,6-penta-O-galloyl-D-glucopyranose” (CHANG GUNG UNIVERSITY, priority 2011, dated 2015)",
  "key": {"[1]": {"tested_on": "PIA production by clinical isolates of S. aureus (SA13, SA288, SA44, SA 130)", "assay": "Quantification of PIA in four clinical isolates", "format": "cell-based, Staphylococcus aureus", "conditions": "12.5 μM and 25 μM, 6 hrs", "experimental": "The amount of PIA was determined by chemiluminescence detection using horseradish peroxidase-conjugated streptavidin (Pierce) according to a method described elsewhere (S. Schlag et al. (2007), supra). Briefly, a tested bacterial strain prepared in TSBg broth was added with β-PGG at a designated concentration and then cultured in a 9 cm petri dish for 6 hrs. The bacterial cells grown in the petri dish were collected by scraping, followed by centrifugation, and the resultant cell pellets were redissolved by addition of 3 mL of 0.5 M EDTA (pH 8.0) for every gram (wet weight) of cell pellet, followed by boiling at 100° C. for 10 min. After centrifugation at 10,000 g for 30 min, the resultant supernatant was 100-fold diluted. An 80 μL aliquot of the diluted supernatant was incubated with 20 μL of proteinase K (10 mg/mL, in dH2O) at 37° C. for 2 hrs, followed by blotting onto a PVDF membrane (Millipore) using a 96-well dot-blot apparatus. […] Thereafter, the membrane was detected by autoradiography using X-ray film, and the intensity of each spot formed on the X-ray film was quantified using a densitometer (LAS-3000, Fujifilm). The relative PIA amount produced by the tested bacterial strain was determined based on the detected intensity, with the amount of PIA from bacterial cells without PGG treatment being set as 100%. […]"}, "[2]": {"tested_on": "S. carnosus TM300", "assay": "Growth (A578) and biofilm (A595) in polystyrene plates", "format": "cell-based", "conditions": "12.5 μM β-PGG, 6 hr", "experimental": "In addition to the above S. aureus strains, S. epidermidis ATCC 35547 and S. epidermidis RP62A (ATCC 35984) were also studied for comparison.\nAn overnight bacterial culture was 200-fold diluted with TSBg, and a 200 μL aliquot of the diluted culture was seeded into each well of 96-well polystyrene microtiter plates and incubated at 37° C. for a designated period of time. Cell growth was determined by measuring the absorbance at 578 nm (A578) with a microtiter plate reader (SpectraMax 340, Molecular Devices). After washing with PBS twice to remove suspended cells, the wells were stained with 0.1% (w/v) crystal violet in 10% ethanol and then treated with 30% acetic acid in dH2O, followed by detecting the absorbance at 595 nm (A595) with the microtiter plate reader to quantify the amount of biofilm formed on polystyrene surface."}},
  "data": [
    {"smiles": "O=C(OC[C@H]1O[C@@H](OC(=O)c2cc(O)c(O)c(O)c2)[C@H](OC(=O)c2cc(O)c(O)c(O)c2)[C@@H](OC(=O)c2cc(O)c(O)c(O)c2)[C@@H]1OC(=O)c1cc(O)c(O)c(O)c1)c1cc(O)c(O)c(O)c1", "note": "[β-PGG, 1,2,3,4,6-penta-O-galloyl-β-D-glucopyranose]", "values": [
      {"measurement": "PIA production by four clinical isolates", "setting": "[1]", "result": "inhibited PIA production"},
      {"measurement": "Biofilm (A595)", "setting": "[2]; 0 μM: 0.12 ± 0.01, non-biofilm negative control strain", "result": "0.10 ± 0.01"},
      {"measurement": "Growth (A578)", "setting": "[2]; 0 μM: 0.69 ± 0.02", "result": "0.70 ± 0.01"}
    ]}
  ]
}
